The subject of assay [1] is ATXN3 transcripts containing exon 4. Description: ATXN3 Quantitative Splicing Assay (qPCR, E4E5 primers/probe). Format: cell-based. The following applies: Homo sapiens, SK-N-MC cells, compounds for 24 h. The essentials:
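SK-N-MC human neuroblastoma cells treated 24 h with compound from 30 μM to 0.6 nM, 24 h after plating. Lysate cDNA was run in TaqMan qPCR, with primers/probe E4E5 detecting exon 4-containing ATXN3 transcripts and E8E9 measuring total ATXN3.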
(Real-time PCR tracks product formation cycle by cycle.)

Assay [2] concerns total ATXN3 protein. Kind of assay: ATXN3 Total Protein Assay (Mesoscale Discovery, SK-N-MC cells). In kind it is cell-based, Human. Particulars: incubation for 48 hours, MSD assay. The method, boiled down:
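Human SK-N-MC neuroblastoma cells treated with compound at 30 μM to 0.6 nM for 48 h, then lysed with protease inhibitors. Total ATXN3 quantified by MSD sandwich immunoassay (mouse capture, rabbit detect antibodies, anti-rabbit MSD-ST secondary) against recombinant ATXN3 standards.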

Assay [3] has as its system ATXN3-HiBiT protein. Kind of assay: ATXN3 Total Protein Assay (Kelly-ATXN3-HiBiT luminescence). In kind it is cell-based. Particulars: Kelly-ATXN3-HiBiT cells, 48 h after addition of compound. The method, boiled down: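 Kelly cells with homozygous C-terminal HiBiT knock-in on endogenous ATXN3, 2000 per well, dosed 24 h after seeding. HiBiT lytic luminescence read 48 h after compound; sister plate read with CellTiter-Glo for viability; fold change vs DMSO.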

pEC50, pIC50: −log10 of the molar value.

The pIC50 is the negative decadic logarithm of the IC50, by convention in mol/L. In general, pEC50 refers to −log10 of the EC50, conventionally taken in molar units.

As to `C[C@H](F)[C@H](N)Cc1oc2c(NCc3cccs3)c(F)c(Cl)nc2c1Br` [Compound 277, 2-[(2R,3S)-2-amino-3-fluorobutyl]-3-bromo-5-chloro-6-fluoro-7-thenylamino-1-oxa-4-azaindene], the pIC50 in assay [1] and in assay [2] was 5.30 to 6.30 throughout. This compound had a pEC50 in assay [3] of 5.30 to 6.30.

On to `N[C@@H](COC(F)F)Cc1oc2c(NCc3cccs3)cc(Cl)nc2c1Br` [Compound 117, 2-[(R)-2-amino-3-difluoromethoxypropyl]-3-bromo-5-chloro-7-thenylamino-1-oxa-4-azaindene], for which the pIC50 in assay [1] and in assay [2] was 7.00 to 11.00 each time. The pEC50 in assay [3] is 7.00 to 11.00.

With `N[C@@H](CCO)Cc1oc2c(NCc3cccs3)cc(Cl)nc2c1Br` [Compound 131, (S)-3-amino-4-(3-bromo-5-chloro-7-thenylamino-1-oxa-4-aza-2-indenyl)-1-butanol], the pIC50 in assay [1] was 6.30 to 7.00; in assay [2], 7.00 to 11.00. In assay [3], this compound showed a pEC50 of 7.00 to 11.00.

In the case of `N#Cc1cc(NCc2cccs2)c2oc(C[C@@H](N)CO)c(Br)c2n1` [Compound 60, 2-[(R)-2-amino-3-hydroxypropyl]-3-bromo-7-thenylamino-1-oxa-4-aza-5-indenecarbonitrile], the pIC50 in assay [1] and in assay [2] was 6.30 to 7.00 each time. The pEC50 in assay [3] is 6.30 to 7.00.

Consider `CC[C@H](N)Cc1oc2c(NCc3cccs3)cc(Cl)nc2c1Br` [Compound 169, 2-[(S)-2-aminobutyl]-3-bromo-5-chloro-7-thenylamino-1-oxa-4-azaindene], for which the pIC50 was 5.30 to 6.30 in assay [1] and 6.30 to 7.00 in assay [2]. The pEC50 in assay [3] was 6.30 to 7.00.

`N[C@H](Cc1oc2c(NCc3cccs3)cc(Cl)nc2c1Br)C1CC(F)(F)C1` [Compound 133, 2-[(R)-2-amino-2-(3,3-difluorocyclobutyl)ethyl]-3-bromo-5-chloro-7-thenylamino-1-oxa-4-azaindene]: the pIC50 in assay [1] and in assay [2] was 5.30 to 6.30 in each case. Moreover, the pEC50 in assay [3] was 5.30 to 6.30.

As to `COC[C@H](N)Cc1oc2c(NCc3ccco3)cc(Cl)nc2c1Cl` [Compound 52, 2-[(R)-2-amino-3-methoxypropyl]-3,5-dichloro-7-(furfurylamino)-1-oxa-4-azaindene], the pIC50 was 7.00 to 11.00 in assay [1] and 6.30 to 7.00 in assay [2]. Moreover, the pEC50 in assay [3] was 7.00 to 11.00.

On to `N[C@H](Cc1oc2c(NCc3cccs3)cc(Cl)nc2c1Br)[C@H]1CCOC1` (single isomer, unassigned) [Compound 99], for which the pIC50 in assay [1] and in assay [2] was 6.30 to 7.00 each time. This compound had a pEC50 in assay [3] of 5.30 to 6.30.

`N[C@H](Cc1oc2c(NCc3ccco3)cc(Cl)nc2c1Br)C(F)F` [Compound 243, 2-[(R)-2-amino-3,3-difluoropropyl]-3-bromo-5-chloro-7-(furfurylamino)-1-oxa-4-azaindene]: the pIC50 in assay [1] was 5.30 to 6.30; in assay [2], 6.30 to 7.00. Further, the pEC50 in assay [3] is 5.30 to 6.30.

On to `C[C@H](N)Cc1oc2c(NCc3nccs3)cc(Cl)nc2c1Br` [Compound 45, 2-[(S)-2-aminopropyl]-3-bromo-5-chloro-7-{[(1,3-thiazol-2-yl)methyl]amino}-1-oxa-4-azaindene], for which the pIC50 in assay [1] and in assay [2] was 6.30 to 7.00 throughout. In assay [3], this compound showed a pEC50 of 7.00 to 11.00.

As to `CC[C@H](N)Cc1oc2c(NCc3cccs3)cc(Cl)nc2c1C` [Compound 13, 2-[(S)-2-aminobutyl]-5-chloro-3-methyl-7-thenylamino-1-oxa-4-azaindene], the pIC50 in assay [1] and in assay [2] was 6.30 to 7.00 in each case. The pEC50 in assay [3] was 6.30 to 7.00.

`COC[C@H](N)Cc1oc2c(NCc3nccs3)cc(Cl)nc2c1Cl` [Compound 53, 2-[(R)-2-amino-3-methoxypropyl]-3,5-dichloro-7-{[(1,3-thiazol-2-yl)methyl]amino}-1-oxa-4-azaindene]: the pIC50 in assay [1] and in assay [2] was 6.30 to 7.00 throughout. This compound showed a negative-log EC50 (pEC50) in assay [3] of 6.30 to 7.00.

With `C[C@H](F)[C@H](N)Cc1oc2c(NCc3ccncc3)cc(Cl)nc2c1Br` [Compound 119, 2-[(2R,3S)-2-amino-3-fluorobutyl]-3-bromo-5-chloro-7-{[(4-pyridyl)methyl]amino}-1-oxa-4-azaindene], the pIC50 in assay [1] and in assay [2] was 7.00 to 11.00 each time. In assay [3], this compound had a pEC50 of 6.30 to 7.00.

With `N[C@@H](Cc1oc2c(NCc3cccs3)cc(Cl)nc2c1Br)[C@H]1CCOC1` (single isomer, unassigned) [Compound 215], the pIC50 in assay [1] and in assay [2] was 4.40 to 5.00 each time. The pEC50 in assay [3] was 4.40 to 5.00.

Turning to `C[C@H](F)[C@H](N)Cc1oc2c(NCc3ccccc3F)cc(Cl)nc2c1Br` [Compound 152, 2-[(2R,3S)-2-amino-3-fluorobutyl]-3-bromo-5-chloro-7-{[(o-fluorophenyl)methyl]amino}-1-oxa-4-azaindene], the pIC50 in assay [1] and in assay [2] was 6.30 to 7.00 throughout. This compound also had a pEC50 in assay [3] of 5.30 to 6.30.

For `C#Cc1c(C[C@H](C)N)oc2c(NCc3ccco3)cc(Cl)nc12` [Compound 64, 2-[(S)-2-aminopropyl]-5-chloro-3-ethynyl-7-(furfurylamino)-1-oxa-4-azaindene], the pIC50 in assay [1] and in assay [2] was 7.00 to 11.00 each time. The same compound had a pEC50 in assay [3] of 7.00 to 11.00.

On to `C[C@H](N)Cc1oc2c(NCc3cccs3)cc(Cl)nc2c1-c1nccs1` [Compound 257, 2-[(S)-2-aminopropyl]-5-chloro-7-thenylamino-3-(1,3-thiazol-2-yl)-1-oxa-4-azaindene], for which the pIC50 in assay [1] and in assay [2] was 4.40 to 5.00 each time. The same compound gave a pEC50 in assay [3] of 4.40 to 5.00.

For the compound `N[C@@H](CO)Cc1oc2c(NCc3cccs3)cc(Cl)nc2c1Cl` [Compound 21, (R)-2-amino-3-(3,5-dichloro-7-thenylamino-1-oxa-4-aza-2-indenyl)-1-propanol], the pIC50 in assay [1] and in assay [2] was 7.00 to 11.00 each time. For the same compound, the pEC50 in assay [3] is 7.00 to 11.00.

Consider `N[C@@H](CCOC(F)F)Cc1oc2c(NCc3nccs3)cc(Cl)nc2c1Br` [Compound 216, 2-[(S)-2-amino-4-difluoromethoxybutyl]-3-bromo-5-chloro-7-{[(1,3-thiazol-2-yl)methyl]amino}-1-oxa-4-azaindene], for which the pIC50 in assay [1] and in assay [2] was 6.30 to 7.00 throughout. The same compound showed a pEC50 in assay [3] of 6.30 to 7.00.

For `CC(C)(N)Cc1oc2c(NCc3cccs3)cc(Cl)nc2c1Br` [Compound 226, 2-(2-amino-2-methylpropyl)-3-bromo-5-chloro-7-thenylamino-1-oxa-4-azaindene], the pIC50 in assay [1] and in assay [2] was 5.30 to 6.30 in each case. For the same compound, the pEC50 in assay [3] was 5.30 to 6.30.

For `C#Cc1c(C[C@@H](N)C2CC(F)(F)C2)oc2c(NCc3cccs3)cc(Cl)nc12` [Compound 139, 2-[(R)-2-amino-2-(3,3-difluorocyclobutyl)ethyl]-5-chloro-3-ethynyl-7-thenylamino-1-oxa-4-azaindene], the pIC50 in assay [1] and in assay [2] was 5.30 to 6.30 throughout. This compound showed a pEC50 in assay [3] of 5.30 to 6.30.

As for `C[C@H](N)Cc1oc2c(NCc3cccs3)cc(Cl)nc2c1-c1ccoc1` [Compound 328, 2-[(S)-2-aminopropyl]-5-chloro-3-(3-furyl)-7-thenylamino-1-oxa-4-azaindene], the pIC50 in assay [1] and in assay [2] was 4.40 to 5.00 throughout. In addition, in assay [3], the pEC50 is 4.40 to 5.00.

Consider `C[C@H](F)[C@H](N)Cc1oc2c(NCc3sccc3F)cc(Cl)nc2c1Cl` [Compound 140, 2-[(2R,3S)-2-amino-3-fluorobutyl]-3,5-dichloro-7-{[(3-fluoro-2-thienyl)methyl]amino}-1-oxa-4-azaindene], for which the pIC50 in assay [1] and in assay [2] was 6.30 to 7.00 throughout. The compound also gave a pEC50 in assay [3] of 6.30 to 7.00.

Consider `N[C@@H](CO)Cc1oc2c(NCc3ccco3)cc(Cl)nc2c1Br` [Compound 22, (R)-2-amino-3-[3-bromo-5-chloro-7-(furfurylamino)-1-oxa-4-aza-2-indenyl]-1-propanol], for which the pIC50 in assay [1] and in assay [2] was 7.00 to 11.00 throughout. In assay [3], this compound showed a pEC50 of 7.00 to 11.00.

Consider `C#Cc1c(C[C@@H](N)COC)oc2c(NCc3ccco3)cc(Cl)nc12` [Compound 66, 2-[(R)-2-amino-3-methoxypropyl]-5-chloro-3-ethynyl-7-(furfurylamino)-1-oxa-4-azaindene], for which the pIC50 in assay [1] and in assay [2] was 7.00 to 11.00 in each case. Further, in assay [3], the pEC50 is 7.00 to 11.00.

On to `C[C@H](F)[C@H](N)Cc1oc2c(NCc3ccc(F)s3)cc(Cl)nc2c1Cl` [Compound 108, 2-[(2R,3S)-2-amino-3-fluorobutyl]-3,5-dichloro-7-{[(5-fluoro-2-thienyl)methyl]amino}-1-oxa-4-azaindene], for which the pIC50 in assay [1] and in assay [2] was 6.30 to 7.00 each time. In assay [3], this compound had a pEC50 of 6.30 to 7.00.

As for `C[C@H](N)Cc1oc2c(NCc3cccs3)cc(Cl)nc2c1C#N` [Compound 18, 2-[(S)-2-aminopropyl]-5-chloro-7-thenylamino-1-oxa-4-aza-3-indenecarbonitrile], the results for the pIC50 in assay [1] and in assay [2] were 4.40 to 5.00 and 5.00 to 5.30, respectively. In assay [3], this compound showed a pEC50 of 5.00 to 5.30.

Take `C[C@H](F)[C@H](N)Cc1oc2c(NCc3nccs3)cc(Cl)nc2c1Br` [Compound 90, 2-[(2R,3S)-2-amino-3-fluorobutyl]-3-bromo-5-chloro-7-{[(1,3-thiazol-2-yl)methyl]amino}-1-oxa-4-azaindene]: the negative-log IC50 (pIC50) in assay [1] and in assay [2] was 7.00 to 11.00 throughout. In addition, the negative-log EC50 (pEC50) in assay [3] was 7.00 to 11.00.

For the origin of these results see patent US20260001889A1, “COMPOSITIONS USEFUL FOR MODULATING SPLICING” (Skyhawk Therapeutics, Inc., priority 2022, published 2026).
